Assay results as given in patent publication US20090124640A1, “Pyrrolo[3,2-D]Pyrimidin-4-One Derivative as Myeloperoxidase Inhibitor” (ASTRAZENECA AB, priority 2006, published 2009).

Biological target: T1, human MPO (Homo sapiens, UniProt P05164)
T1 sequence (P05164 49-745): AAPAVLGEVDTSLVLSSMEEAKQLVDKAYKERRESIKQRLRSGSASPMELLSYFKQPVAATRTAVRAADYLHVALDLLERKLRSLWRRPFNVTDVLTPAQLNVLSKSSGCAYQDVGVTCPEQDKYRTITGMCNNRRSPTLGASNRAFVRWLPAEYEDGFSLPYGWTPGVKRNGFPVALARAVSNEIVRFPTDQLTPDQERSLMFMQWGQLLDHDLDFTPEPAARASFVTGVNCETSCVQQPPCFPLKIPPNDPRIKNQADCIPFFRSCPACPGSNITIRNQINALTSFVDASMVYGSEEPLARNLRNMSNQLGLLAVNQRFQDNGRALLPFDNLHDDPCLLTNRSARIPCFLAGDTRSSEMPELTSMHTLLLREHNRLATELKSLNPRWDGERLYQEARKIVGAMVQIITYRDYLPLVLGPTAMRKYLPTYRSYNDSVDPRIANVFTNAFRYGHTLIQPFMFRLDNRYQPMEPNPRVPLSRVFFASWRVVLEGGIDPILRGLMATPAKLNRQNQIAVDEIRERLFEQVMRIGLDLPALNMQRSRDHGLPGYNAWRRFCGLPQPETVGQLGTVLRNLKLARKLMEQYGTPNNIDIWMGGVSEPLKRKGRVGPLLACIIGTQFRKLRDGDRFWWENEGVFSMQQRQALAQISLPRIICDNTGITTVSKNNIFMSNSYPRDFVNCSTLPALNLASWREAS
Test: MPO inhibition screen (TMB oxidation, absorbance)
Assay type: biochemical
Conditions: at least one version of the screen (compound alone or with added tyrosine, 8 μM final); human MPO 2.5 nM, H2O2 100 μM, pH 6.5
Experimental: Methods for the determination of MPO inhibitory activity are disclosed in patent application WO 02/090575. The pharmacological activity of compounds according to the invention was tested in the following screen in which the compound was either tested alone or in the presence of added tyrosine:
Assay buffer: 20 mM sodium/potassium phosphate buffer pH 6.5 containing 10 mM taurine and 100 mM NaCl.
Developing reagent: 2 mM 3,3′,5,5′-tetramethylbenzidine (TMB), 200 μM KI, 200 mM acetate buffer pH 5.4 with 20% DMF.
To 10 μl of diluted compounds in assay buffer, 40 μL of human MPO (final concentration 2.5 nM), with or without 20 μM tyrosine (final concentration, if present, 8 μM), was added and the mixture was incubated for 10 minutes at ambient temperature. Then 50 μl of H2O2 (final concentration 100 μM), or assay buffer alone as a control, were added. After incubation for 10 minutes at ambient temperature, the reaction was stopped by adding 10 μl 0.2 mg/ml of catalase (final concentration 18 μg/ml). The reaction mixture was left for an additional 5 minutes before 100 μl of TMB developing reagent was added. The amount of oxidised 3,3′,5,5′-tetramethylbenzidine formed was then measured after about 5 minutes using absorbance spectroscopy at about […]. IC50 values were then determined using standard procedures.

IC50: < 5 µM
Structure (SMILES): O=c1[nH]c(=S)n(CCO)c2cc[nH]c12 [Example 1, 1-(2-Hydroxyethyl)-2-thioxo-1,2,3,5-tetrahydro-4H-pyrrolo[3,2-d]pyrimidin-4-one]
